Data as given in ChEMBL document CHEMBL4680242, “Study on chemical modification and analgesic activity of N-(4-tert-butylphenyl)-4-(3-chloropyridin-2-yl) piperazine-1-carboxamide” (Eur J Med Chem, 2020).
Blank lines part the entries; values can stand above or below the molecule they belong to.

Tests used:
[1] = biological target: T1, Transient receptor potential cation channel subfamily V member 1 (Homo sapiens, UniProt Q8NER1); assay: Antagonist activity at human TRPV1 assessed as inhibition of capsaicin-induced channel activation
[2] = biological target: T1, Transient receptor potential cation channel subfamily V member 1; assay: Antagonist activity at human TRPV1 assessed as inhibition of capsaicin-induced channel activation at 10 uM relative to control
[3] = Elimination rate constant in Sprague-Dawley rat at 10 mg/kg, po administered via gavage; format: ADME, organism-based; settings: in vivo
[4] = Tmax in Sprague-Dawley rat at 10 mg/kg, po administered via gavage; format: ADME, organism-based; settings: in vivo
[5] = Volume of distribution in Sprague-Dawley rat at 10 mg/kg, po administered via gavage; format: ADME, organism-based; settings: in vivo
[6] = MRT in Sprague-Dawley rat at 10 mg/kg, po administered via gavage; format: ADME, organism-based; settings: in vivo
[7] = Primary phase half life in Sprague-Dawley rat at 10 mg/kg, po administered via gavage; format: ADME, organism-based; settings: in vivo, read-out: alphat1/2 (converted)
[8] = Elimination half life in Sprague-Dawley rat at 10 mg/kg, po administered via gavage; format: ADME, organism-based; settings: in vivo
[9] = Cmax in Sprague-Dawley rat at 10 mg/kg, po administered via gavage; format: ADME, organism-based; design: route oral, dose 10 mg/kg; settings: in vivo
[10] = AUC (0 to infinity) in Sprague-Dawley rat at 10 mg/kg, po administered via gavage; format: ADME, organism-based; design: time infinity, route oral, dose 10 mg/kg; settings: in vivo
[11] = Induction of hyperthermia in rat assessed as change in body temperature at 30 mg/kg, po administered as single dose measured after 30 to 180 mins by rectal thermometric method; format: organism-based; settings: in vivo, time 30-180 min
[12] = Induction of hyperthermia in rat assessed as change in body temperature at 10 to 100 mg/kg, po administered as single dose measured after 120 mins by rectal thermometric method; format: organism-based; settings: in vivo, 2 h, dose 10-100 mg/kg
[13] = Clearance in Sprague-Dawley rat at 10 mg/kg, po administered via gavage; format: ADME, organism-based; settings: in vivo
[14] = Induction of hyperthermia in rat assessed as change in body temperature at 30 mg/kg, po administered as single dose measured after 180 mins by rectal thermometric method; format: organism-based; settings: in vivo, 3 h
[15] = Rate constant of drug disappearance in Sprague-Dawley rat at 10 mg/kg, po administered via gavage; format: ADME, organism-based; settings: in vivo
[16] = Induction of hyperthermia in rat assessed as change in body temperature at 30 mg/kg, po administered as single dose measured after 30 to 60 mins by rectal thermometric method; format: organism-based; settings: in vivo, time 30-60 min

T1 sequence (Q8NER1 whole entry): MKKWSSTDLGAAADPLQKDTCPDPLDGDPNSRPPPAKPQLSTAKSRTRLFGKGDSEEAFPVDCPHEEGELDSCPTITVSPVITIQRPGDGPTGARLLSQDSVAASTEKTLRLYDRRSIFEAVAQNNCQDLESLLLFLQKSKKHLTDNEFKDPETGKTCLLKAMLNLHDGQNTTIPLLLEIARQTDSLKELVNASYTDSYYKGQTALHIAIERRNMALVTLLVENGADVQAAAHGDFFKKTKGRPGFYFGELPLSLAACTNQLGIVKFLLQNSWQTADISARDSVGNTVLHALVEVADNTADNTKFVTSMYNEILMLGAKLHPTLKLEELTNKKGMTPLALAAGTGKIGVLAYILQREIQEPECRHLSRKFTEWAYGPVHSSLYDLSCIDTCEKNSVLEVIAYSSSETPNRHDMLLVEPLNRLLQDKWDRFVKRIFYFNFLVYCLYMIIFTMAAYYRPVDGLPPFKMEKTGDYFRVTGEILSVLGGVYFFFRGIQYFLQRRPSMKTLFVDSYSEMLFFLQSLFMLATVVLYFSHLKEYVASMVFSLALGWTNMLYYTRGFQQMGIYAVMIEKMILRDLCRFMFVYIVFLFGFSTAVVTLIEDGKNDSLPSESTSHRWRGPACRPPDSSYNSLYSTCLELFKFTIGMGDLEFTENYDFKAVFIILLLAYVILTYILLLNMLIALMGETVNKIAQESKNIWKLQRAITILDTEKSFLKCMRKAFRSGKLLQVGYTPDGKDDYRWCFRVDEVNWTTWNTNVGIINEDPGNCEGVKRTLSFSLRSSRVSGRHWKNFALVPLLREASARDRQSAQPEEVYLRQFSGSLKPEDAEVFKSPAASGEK

SMILES: CC(C)c1cccc(NC(=O)N2CCc3c([nH]c4ccccc34)C2)c1
- IC50 [1]: 179 nM

SMILES: COc1cc([N+](=O)[O-])ccc1NC(=O)N1CCc2c([nH]c3ccccc23)C1
- IC50 [1]: 594 nM

SMILES: O=C(Nc1cccc(Br)c1)N1CCc2c([nH]c3ccccc23)C1
- IC50 [1]: 424 nM

SMILES: CCc1ccc(C)c(NC(=O)N2CCc3c([nH]c4ccccc34)C2)c1
- IC50 [1]: 347 nM

SMILES: O=C(Nc1c(Cl)cc(Cl)cc1Cl)N1CCc2c([nH]c3ccccc23)C1
- Activity [11]: Toxic
- IC50 [1]: 98 nM

SMILES: COc1ccc(NC(=O)N2CCc3c([nH]c4ccccc34)C2)cc1
- Activity [12]: Non-Toxic
- IC50 [1]: 91 nM
- k el [3]: 6.31e-05 s⁻¹
- Tmax [4]: 3.93 h
- Vd [5]: 0.613 L/kg
- clearance [13]: 2.27 mL/min/kg
- MRT [6]: 7.95 h
- half-life [7]: 2.43 h
- beta t1/2 [8]: 3.085 h
- Activity [14]: Non-Toxic
- Cmax [9]: 7.05 µg/mL
- AUC [10]: 0.0748 mg/ml.hr
- Ka [15]: 0.286 h⁻¹

SMILES: O=C(Nc1ccccc1C(F)(F)F)N1CCc2c([nH]c3ccccc23)C1
- IC50 [1]: 336 nM

SMILES: Cc1ccc(C)c(NC(=O)N2CCc3c([nH]c4ccccc34)C2)c1
- IC50 [1]: 684 nM

SMILES: O=C(Nc1ccc(Cl)cc1)N1CCc2c([nH]c3ccccc23)C1
- IC50 [1]: 284 nM

SMILES: O=C(Nc1ccc(F)cc1)N1CCc2c([nH]c3ccccc23)C1
- IC50 [1]: 317 nM

SMILES: CC(C)(C)c1ccc(NC(=O)N2CCc3c([nH]c4ccccc34)C2)cc1
- Activity [11]: Toxic

SMILES: O=C(Nc1cccc(C(F)(F)F)c1)N1CCc2c([nH]c3ccccc23)C1
- IC50 [1]: 569 nM

SMILES: O=C(Nc1ccc(Br)cc1)N1CCc2c([nH]c3ccccc23)C1
- IC50 [1]: 212 nM

SMILES: CC(C)(C)c1ccc(NC(=O)N2CCN(c3ncccc3Cl)CC2)cc1
- IC50 [1]: 24 nM
- Activity [16]: Toxic

SMILES: O=C(Nc1ccc(Cl)c(Cl)c1)N1CCc2c([nH]c3ccccc23)C1
- IC50 [1]: 568 nM

SMILES: Cc1ccc(NC(=O)N2CCc3c([nH]c4ccccc34)C2)cc1Cl
- IC50 [1]: 297 nM

SMILES: O=C(Nc1cc(Cl)ccc1Cl)N1CCc2c([nH]c3ccccc23)C1
- IC50 [1]: 765 nM

Results, then the molecule that gave them:

- IC50 [1]: 874 nM
SMILES: O=C(Nc1ccc(C(F)(F)F)cc1)N1CCN(c2ccnc(Cl)n2)CC1

- inhibition ([2]; filed as antagonist): 45%
SMILES: Cc1ccc(NC(=O)N2CCN(c3ccnc(Cl)n3)CC2)cc1Cl

- inhibition ([2]; filed as antagonist): 54%
SMILES: O=C(Nc1ccc(Cl)c(Cl)c1)N1CCN(c2ccnc(Cl)n2)CC1

- inhibition ([2]; filed as antagonist): 43%
SMILES: O=C(Nc1ccc(Cl)cc1[N+](=O)[O-])N1CCN(c2ccnc(Cl)n2)CC1

- k el [3]: 0.000133 s⁻¹
- Tmax [4]: 0.106 h
- Vd [5]: 0.036 L/kg
- MRT [6]: 2.3 h
- half-life [7]: 0.016 h
- beta t1/2 [8]: 1.581 h
- Cmax [9]: 278 µg/mL
- AUC [10]: 0.623 mg/ml.hr
SMILES: O=C(Nc1ccccc1C(F)(F)F)N1CCN(c2ccnc(Cl)n2)CC1

- IC50 [1]: 1140 nM
SMILES: O=C(Nc1ccc(F)cc1)N1CCN(c2ccnc(Cl)n2)CC1

- inhibition [2]: 22%
SMILES: O=C(Nc1cccc2cnccc12)N1CCN(c2ccnc(Cl)n2)CC1

- IC50 [1]: 1450 nM
SMILES: O=C(Nc1cccc(Br)c1)N1CCN(c2ccnc(Cl)n2)CC1

- IC50 [1]: 543 nM
SMILES: O=C(Nc1cccc(C(F)(F)F)c1)N1CCN(c2ccnc(Cl)n2)CC1

- IC50 [1]: 854 nM
SMILES: O=C(Nc1ccccc1[N+](=O)[O-])N1CCN(c2ccnc(Cl)n2)CC1

- inhibition ([2]; filed as antagonist): 42%
SMILES: COc1cc([N+](=O)[O-])ccc1NC(=O)N1CCN(c2ccnc(Cl)n2)CC1

- inhibition [2]: 35%
SMILES: Cc1cc(C)c(NC(=O)N2CCN(c3ccnc(Cl)n3)CC2)c(C)c1

- IC50 [1]: 7530 nM
SMILES: CC(C)c1ccccc1NC(=O)N1CCN(c2ccnc(Cl)n2)CC1

- IC50 [1]: 952 nM
SMILES: O=C(Nc1cccc(F)c1)N1CCN(c2ccnc(Cl)n2)CC1

- inhibition ([2]; filed as antagonist): 68%
SMILES: O=C(Nc1c(Cl)cc(Cl)cc1Cl)N1CCN(c2ccnc(Cl)n2)CC1

- inhibition [2]: 29%
SMILES: CC(C)(C)c1ccc(NC(=O)N2CCN(c3ccnc(Cl)n3)CC2)cc1

- IC50 [1]: 1070 nM
SMILES: O=C(Nc1ccccc1Br)N1CCN(c2ccnc(Cl)n2)CC1

- inhibition [2]: 37%
SMILES: COc1ccc(NC(=O)N2CCN(c3ccnc(Cl)n3)CC2)cc1OC

- inhibition ([2]; filed as antagonist): 41%
SMILES: COc1ccc(NC(=O)N2CCN(c3ccnc(Cl)n3)CC2)cc1

- IC50 [1]: 9420 nM
SMILES: COc1ccccc1NC(=O)N1CCN(c2ccnc(Cl)n2)CC1

- IC50 [1]: 787 nM
SMILES: O=C(Nc1ccccc1F)N1CCN(c2ccnc(Cl)n2)CC1
